Experimental data: US10105437B2, “Epitopes related to coeliac disease” (BTG International Limited, priority 2004, dated 2018)
Where no end group is shown, it is not given here.

The substances below were run on PBMC from HLA DQ8+DQ2- CD subjects (assay: Interferon gamma ELISPOT, second round gliadin library in HLA DQ8 subjects). Conditions: not given.
Type: cell-based, human
From the text: PBMC from two subjects initially challenged were used to screen the first round “Melbourne” wheat gliadin 20mer library. The 20mer sequences identified using PBMC from these two HLA DQ8 CD subjects were dissected further by screening, in five HLA DQ8+DQ2− CD subjects including the two original subjects, a second round library based on reactive 20mers in the 1st round library. The 2nd round library consisted of screening grade overlapping 16mers, and 13mers predicted to correspond to tTG-mediated deamidation products of epitopes with the potential for deamidation of glutamine at position 1 and/or position 9 (consistent with the HLA DQ8 peptide binding motif). In addition, the 1400 glutenin (HMW and LMW) tTG-pretreated 20mers in the “Melbourne” wheat gluten library were also screened in these five subjects.

Row | Substance | effect of deamidation of specific glutamine residues on ELISPOT responses
1 | (QE)QPTPIQP(QE): HLA DQ8 gliadin epitope motif, Q or E at marked positions (XQPTPIQPX; not fully specified; printed as (QE)QPTPIQP(QE)) | enhanced or permissive to specific glutamine residues being deamidated
2 | (QE)QPIPVQP(QE): HLA DQ8 gliadin epitope motif, Q or E at marked positions (XQPIPVQPX; not fully specified; printed as (QE)QPIPVQP(QE)) | enhanced or permissive to specific glutamine residues being deamidated
3 | (QE)GSFQPSQ(QE): previously published HLA DQ8 epitope, van der Wal 1998 (XGSFQPSQX; not fully specified; printed as (QE)GSFQPSQ(QE)) [reference compound] | enhanced or permissive to specific glutamine residues being deamidated
4 | (QE)QPFPLQP(QE): HLA DQ8 gliadin epitope motif, Q or E at marked positions (XQPFPLQPX; not fully specified; printed as (QE)QPFPLQP(QE)) | enhanced or permissive to specific glutamine residues being deamidated
5 | (QE)QPFP(QE)QP(QE): HLA DQ8 gliadin epitope motif, Q or E at marked positions (XQPFPXQPX; not fully specified; printed as (QE)QPFP(QE)QP(QE)) | enhanced or permissive to specific glutamine residues being deamidated
6 | (QE)QPQQPFP(QE): HLA DQ8 gliadin epitope motif, Q or E at marked positions (XQPQQPFPX; not fully specified; printed as (QE)QPQQPFP(QE)) | enhanced or permissive to specific glutamine residues being deamidated

Same assay, conditions: VYIPPYCTIAPFGIFG and/or AMCNVYIPPYCAMAPF; five subjects

Row | Substance | subjects with dominant responses to one or both of these peptides
7 | AMCNVYIPPYCAMAPF (Description of Artificial Sequence: Synthetic gluten peptide) [gliadin 16mer, HLA DQ8] | 4/5
8 | VYIPPYCTIAPFGIFG (Description of Artificial Sequence: Synthetic gluten peptide) [gliadin 16mer, HLA DQ8] | 4/5

Same assay, conditions: five subjects; wheat gluten challenge

Row | Substance | subjects with >70% response to maximal gliadin 16mer (dominant)
9 | AMCNVYIPPYCAMAPF (Description of Artificial Sequence: Synthetic gluten peptide) [gliadin 16mer, HLA DQ8] | 3/5
10 | VYIPPYCTIAPFGIFG (Description of Artificial Sequence: Synthetic gluten peptide) [gliadin 16mer, HLA DQ8] | 3/5

The substances below were run on PBMC from HLA-DQ2+ coeliac subjects (assay: Interferon gamma ELISPOT, secalin 20mer first round library after rye challenge). Conditions: 20mers pre-treated with tTG; day 6 PBMC; 14 subjects.
Type: cell-based, human
Method: Peptides were initially dissolved in aqueous acetonitrile (50%). Peptides in aqueous acetonitrile were transferred to sterile 96-well plates and diluted in sterile PBS with 1 mM calcium (250 mcg/ml) and then incubated with tTG (25 mcg/ml) (Sigma T5398) for 6 h 37° C. and then stored frozen (−20° C.) until use.
(§1) IFNγ ELISpot assays (Mabtech, Sweden) were performed in 96-well plates (MAIP S-45, Millipore) in which each well contained 25 mcl of peptide solution and 100 mcl of PBMC (2-8×10^5/well) in RPMI containing 10% heat inactivated human AB serum. After development and drying, IFNγ ELISpot plates were assessed using the MAIP automated ELISpot plate counter. Data was then analysed according to a novel algorithm (Expectation Maximization: EM) to define and quantify interferon-gamma responses to 9mer sequences contained within the peptide library (see FIG. 3 and below). 9mer peptides were then rationalised according to an algorithm that assumes redundancy in T-cell recognition, the “IterativeCluster” algorithm (see FIG. 4 and below), by allowing groups of amino acids with similar chemical properties at any one position in the 9mer, or for glutamate to replace glutamine at any position (assuming deamidation may have occurred).
Secalin and hordein 20mer first round peptide libraries were assessed 3 days after completing rye (bread, 100 g/d for 3 days) or barley (boiled, 100 g/d for 3 days) challenge (“day 6” PBMC interferon gamma ELISPOT responses). Although iterative analysis using 2nd and 3rd round peptide libraries to define epitopes has not yet been performed, the 20mers pre-treated with tTG found to induce “potent” responses shared substantial structural similarity to the bioactive peptides identified after wheat challenge. […] The dominant (>70% maximal response) 20mer after rye challenge was usually […] (SEQ ID NO: 1769) (8/14 subjects), or occasionally […] (SEQ ID NO: 1770) (4/14), […] (SEQ ID NO: 1771) (1/14), […] (SEQ ID NO: 1772) (1/14) and/or […] (SEQ ID NO: 1773) (1/14). Additional peptides noted for greater than 40% maximal response in at least 1 subject include: […]

Row | Substance | subjects in whom 20mer was dominant (>70% maximal response) after rye challenge
11 | QQPQQLFPQTQQSSPQQPQQ (Description of Artificial Sequence: Synthetic gluten peptide) [rye secalin 20mer] | 1/14
12 | PQQLFPLPQQPFPQPQQPFP (Description of Artificial Sequence: Synthetic gluten peptide) [rye secalin 20mer] | 8/14

Same assay, conditions: after rye challenge; 14 subjects

Row | Substance | number of subjects with > 70% maximal response | subjects with greater than 40% maximal response
13 | SPQQPQLPFPQPQQPFVVVV (Description of Artificial Sequence: Synthetic gluten peptide) [rye secalin 20mer] | 1 | 4/14
14 | QQLPLQPQQPFPQPQQPIPQ (Description of Artificial Sequence: Synthetic gluten peptide) [rye secalin 20mer] | 2 | 6/14
15 | PQQPFPQQPEQIIPQQPQQP (Description of Artificial Sequence: Synthetic gluten peptide) [rye secalin 20mer] | 3 | 5/14
16 | FPLQPQQPFPQQPEQIISQQ (Description of Artificial Sequence: Synthetic gluten peptide) [rye secalin 20mer] | 1 | 5/14
17 | QTQQSIPQPQQPFPQPQQPF (Description of Artificial Sequence: Synthetic gluten peptide) [rye secalin 20mer] | 1 | 3/14
18 | QQPFLLQPQQPFSQPQQPFL (Description of Artificial Sequence: Synthetic gluten peptide) [rye secalin 20mer] | 1 | 1/14
19 | QQPQQPFPLQPQQPVPQQPQ (Description of Artificial Sequence: Synthetic gluten peptide) [rye secalin 20mer] | 1 | 3/14

These substances were tested on PBMC from HLA-DQ2+ coeliac subjects (assay: Interferon gamma ELISPOT, third round wheat peptide library). Conditions: following deamidation by tTG; 14 subjects; wheat challenge.
Type: cell-based, human
Method: as §1
The third round peptide library consisted of 74 peptides based upon structurally distinct sequences in the second round library found to induce at least 10% of the maximal response to any peptide in any subject. These peptides corresponded to wild-type (non-deamidated) sequences virtually identical to those used in the second round library. The distinct feature of this library was that it consisted of peptides with purity verified by HPLC as >80%, and with sequences confirmed by mass spectroscopy.
Interferon gamma ELSIPOT responses to the 3rd round library peptides following deamidation by tTG were compared in 14 subjects. Once again, sequences including the PQPQLPY motif (SEQ ID NO: 1937) were “dominant” in 9/14 subjects. However PFPQPQQPFPW (SEQ ID NO: 1894) stimulated >70% of maximal response in 1/14 subjects, PFPQQPQQPFPQ (SEQ ID NO: 1895) in 1/14, PQPFLPQLPYPQP (SEQ ID NO: 1896) in 1/14, QPFPQPQQPQQP (SEQ ID NO: 1897) in 4/14 (including 3 subjects in whom PQPQLPY peptides (SEQ ID NO: 1937) were not potent epitopes) SGQGVSQSQQQSQQQ (SEQ ID NO: 1898) in 2/14 (including one in which PQPQLPY peptides (SEQ ID NO: 1937) were not potent), QYEVIRSLVLRTLPNM (SEQ ID NO: 1899) and GLARSQMLQQSICHVG (SEQ ID NO: 1900) each in one (the same) subject in whom PQPQLPY peptides (SEQ ID NO: 1937) were not potent epitopes, RTTTSVPFGVGTGVGA (SEQ ID NO: 1901) in 1/14 subjects and AIHTVIHSIIMQQEQQ (SEQ ID NO: 1902) in 1/14 subjects.

Row | Substance | subjects in whom peptide stimulated >70% of maximal response (dominant)
20 | QPFPQPQQPQQP (Description of Artificial Sequence: Synthetic gluten peptide) | 4/14
21 | SGQGVSQSQQQSQQQ (Description of Artificial Sequence: Synthetic gluten peptide) | 2/14
22 | PFPQQPQQPFPQ (Description of Artificial Sequence: Synthetic gluten peptide) | 1/14
23 | QYEVIRSLVLRTLPNM (Description of Artificial Sequence: Synthetic gluten peptide) | one
24 | AIHTVIHSIIMQQEQQ (Description of Artificial Sequence: Synthetic gluten peptide) | 1/14
25 | PFPQPQQPFPW (Description of Artificial Sequence: Synthetic gluten peptide) | 1/14
26 | RTTTSVPFGVGTGVGA (Description of Artificial Sequence: Synthetic gluten peptide) | 1/14
27 | GLARSQMLQQSICHVG (Description of Artificial Sequence: Synthetic gluten peptide) | one
28 | PQPFLPQLPYPQP (Description of Artificial Sequence: Synthetic gluten peptide) | 1/14
